Reference: ChEMBL document CHEMBL3763078, “Cytotoxicity and apoptotic activity of novel organobismuth(V) and organoantimony(V) complexes in different cancer cell lines” (Eur J Med Chem, 2016)

Columns and labels:
L929 = test: Cytotoxicity against mouse L929 cells assessed as cell viability after 72 hrs by MTT assay; assay type: cell-based
[1] = Cytotoxicity against mouse B16F10 cells assessed as cell viability after 72 hrs by MTT assay; assay type: functional, cell-based, B16-F10
B16-F10 [2] = test: Selectivity index, ratio of IC50 for mouse L929 cells to IC50 for mouse B16F10 cells; assay type: functional
B16-F10 [3] = test: Selectivity index, ratio of IC50 for mouse Melan-a cells to IC50 for mouse B16F10 cells; assay type: functional
K562 [4] = test: Cytotoxicity against human K562 cells assessed as cell viability after 72 hrs by tryphan blue assay; assay type: functional, cell-based
K562 [5] = test: Selectivity index, ratio of IC50 for mouse L929 cells to IC50 for human K562 cells; assay type: functional
K562 [6] = test: Selectivity index, ratio of IC50 for mouse Melan-a cells to IC50 for human K562 cells; assay type: functional
[7] = Induction of apoptosis in mouse thymocytes at 30 uM after 3 hrs by annexin V-FITC/ethidium bromide staining-based flow cytometric analysis relative to control; assay type: cell-based; details: thymocyte
B16-F10 [8] = test: Induction of apoptosis in mouse B16F10 cells assessed as increase in sub-diploid DNA content at 10 uM after 24 hrs by propidium iodide staining-based flow cytometric analysis relative to control; assay type: functional, cell-based
B16-F10 [9] = test: Induction of apoptosis in mouse B16F10 cells assessed as increase in sub-diploid DNA content at 100 uM after 24 hrs by propidium iodide staining-based flow cytometric analysis relative to control; assay type: functional, cell-based
B16-F10 [10] = test: Induction of apoptosis in mouse B16F10 cells assessed as increase in sub-diploid DNA content at 10 uM after 48 hrs by propidium iodide staining-based flow cytometric analysis relative to control; assay type: functional, cell-based
B16-F10 [11] = test: Induction of apoptosis in mouse B16F10 cells assessed as increase in sub-diploid DNA content at 100 uM after 48 hrs by propidium iodide staining-based flow cytometric analysis relative to control; assay type: functional, cell-based
B16-F10 [12] = test: Induction of apoptosis in mouse B16F10 cells assessed as dead cells at 1 uM after 48 hrs by annexin V-FITC/propidium iodide staining-based flow cytometric analysis (reference value: 1.11%); assay type: functional, cell-based
B16-F10 [13] = test: Induction of apoptosis in mouse B16F10 cells assessed as late apoptotic cells at 1 uM after 48 hrs by annexin V-FITC/propidium iodide staining-based flow cytometric analysis (reference value: 0.450%); assay type: functional, cell-based
B16-F10 [14] = test: Induction of apoptosis in mouse B16F10 cells assessed as viable cells at 1 uM after 48 hrs by annexin V-FITC/propidium iodide staining-based flow cytometric analysis (reference value: 98.4%); assay type: functional, cell-based
B16-F10 [15] = test: Induction of apoptosis in mouse B16F10 cells assessed as early apoptotic cells at 1 uM after 48 hrs by annexin V-FITC/propidium iodide staining-based flow cytometric analysis (reference value: 0.087%); assay type: functional, cell-based
B16-F10 [16] = test: Induction of apoptosis in mouse B16F10 cells assessed as dead cells at 10 uM after 48 hrs by annexin V-FITC/propidium iodide staining-based flow cytometric analysis (reference value: 1.11%); assay type: functional, cell-based
B16-F10 [17] = test: Induction of apoptosis in mouse B16F10 cells assessed as late apoptotic cells at 10 uM after 48 hrs by annexin V-FITC/propidium iodide staining-based flow cytometric analysis (reference value: 0.450%); assay type: functional, cell-based
B16-F10 [18] = test: Induction of apoptosis in mouse B16F10 cells assessed as viable cells at 10 uM after 48 hrs by annexin V-FITC/propidium iodide staining-based flow cytometric analysis (reference value: 98.4%); assay type: functional, cell-based
B16-F10 [19] = test: Induction of apoptosis in mouse B16F10 cells assessed as early apoptotic cells at 10 uM after 48 hrs by annexin V-FITC/propidium iodide staining-based flow cytometric analysis (reference value: 0.087%); assay type: functional, cell-based
B16-F10 [20] = test: Induction of apoptosis in mouse B16F10 cells assessed as dead cells at 100 uM after 48 hrs by annexin V-FITC/propidium iodide staining-based flow cytometric analysis (reference value: 1.11%); assay type: functional, cell-based
B16-F10 [21] = test: Induction of apoptosis in mouse B16F10 cells assessed as late apoptotic cells at 100 uM after 48 hrs by annexin V-FITC/propidium iodide staining-based flow cytometric analysis (reference value: 0.450%); assay type: functional, cell-based
B16-F10 [22] = test: Induction of apoptosis in mouse B16F10 cells assessed as viable cells at 100 uM after 48 hrs by annexin V-FITC/propidium iodide staining-based flow cytometric analysis (reference value: 98.4%); assay type: functional, cell-based
B16-F10 [23] = test: Induction of apoptosis in mouse B16F10 cells assessed as early apoptotic cells at 100 uM after 48 hrs by annexin V-FITC/propidium iodide staining-based flow cytometric analysis (reference value: 0.087%); assay type: functional, cell-based
B16-F10 [24] = test: Induction of apoptosis in mouse B16F10 cells at 1 uM after 48 hrs by annexin V-FITC/propidium iodide staining-based flow cytometric analysis relative to control; assay type: functional, cell-based
B16-F10 [25] = test: Induction of apoptosis in mouse B16F10 cells at 10 uM after 48 hrs by annexin V-FITC/propidium iodide staining-based flow cytometric analysis relative to control; assay type: functional, cell-based
B16-F10 [26] = test: Induction of apoptosis in mouse B16F10 cells at 100 uM after 48 hrs by annexin V-FITC/propidium iodide staining-based flow cytometric analysis relative to control; assay type: functional, cell-based
B16-F10 [27] = test: Induction of apoptosis in mouse B16F10 cells at 1 to 100 uM after 48 hrs by annexin V-FITC/propidium iodide staining-based flow cytometric analysis relative to staurosporine; assay type: functional, cell-based
B16-F10 [28] = test: Induction of apoptosis in mouse B16F10 cells assessed as increase in sub-diploid DNA content at 10 uM after 24 hrs by propidium iodide staining-based flow cytometric analysis relative to staurosporin; assay type: functional, cell-based
B16-F10 [29] = test: Induction of apoptosis in mouse B16F10 cells assessed as increase in sub-diploid DNA content at 100 uM after 24 hrs by propidium iodide staining-based flow cytometric analysis relative to staurosporin; assay type: functional, cell-based
B16-F10 [30] = test: Induction of apoptosis in mouse B16F10 cells assessed as dead cells at 0.1 uM after 48 hrs by annexin V-FITC/propidium iodide staining-based flow cytometric analysis (reference value: 1.11%); assay type: functional
B16-F10 [31] = test: Induction of apoptosis in mouse B16F10 cells assessed as late apoptotic cells at 0.1 uM after 48 hrs by annexin V-FITC/propidium iodide staining-based flow cytometric analysis (reference value: 0.450%); assay type: functional
B16-F10 [32] = test: Induction of apoptosis in mouse B16F10 cells assessed as viable cells at 0.1 uM after 48 hrs by annexin V-FITC/propidium iodide staining-based flow cytometric analysis (reference value: 98.4%); assay type: functional; details: B16-F10, 48 h, read-out: Activity
B16-F10 [33] = test: Induction of apoptosis in mouse B16F10 cells assessed as early apoptotic cells at 0.1 uM after 48 hrs by annexin V-FITC/propidium iodide staining-based flow cytometric analysis (reference value: 0.087%); assay type: functional
B16-F10 [34] = test: Induction of apoptosis in mouse B16F10 cells at 0.1 uM after 48 hrs by annexin V-FITC/propidium iodide staining-based flow cytometric analysis relative to control; assay type: functional
[35] = Cytotoxicity against mouse Melan-a cells assessed as cell viability after 72 hrs by MTT assay; assay type: cell-based
HL-60 [36] = test: Induction of apoptosis in human HL60 cells assessed as increase in sub-diploid DNA content at 0.44 uM after 6 hrs by propidium iodide staining-based flow cytometric analysis relative to control; assay type: functional, cell-based
HL-60 [37] = test: Induction of apoptosis in human HL60 cells assessed as increase in sub-diploid DNA content at 0.44 uM after 12 hrs by propidium iodide staining-based flow cytometric analysis relative to control; assay type: functional, cell-based

In the case of `CC(=O)c1ccc(C(=O)O)cc1`, the IC50 (L929; Mus musculus, L929, 72 h) is reported as 331 µM, the IC50 ([1]; Mus musculus, B16-F10, 72 h) is reported as 176 µM and the “Ratio IC50” value (B16-F10 [2]) is reported as 1.8. The “Ratio IC50” value (B16-F10 [3]) was less than 1, the IC50 (K562 [4]; Homo sapiens, K562, 72 h) was less than 1000 µM and the “Ratio IC50” value (K562 [5]) was less than 1. The “Ratio IC50” value (K562 [6]) was less than 1.

For TRIPHENYLBISMUTHINE, the “fold change (FC)” value [7] was 5.

In the case of triphenylantimony(V) dichloride, the Ratio IC50 (B16-F10 [2]) is reported as 1.9, the Ratio IC50 (B16-F10 [3]) is reported as 6.7 and the Ratio IC50 (K562 [5]) is reported as 2.6. The Ratio IC50 (K562 [6]) was 2.6.

Work on [sequence] yielded a Ratio IC50 (B16-F10 [2]) of 8, a Ratio IC50 (B16-F10 [3]) of 6.7 and a Ratio IC50 (K562 [5]) of 5. For the same compound, the Ratio IC50 (K562 [6]) was 4.1.

With “bis-(4-acetylbenzoato)triphenylantimony(V)” the Ratio IC50 (B16-F10 [2]) was 3.1, the Ratio IC50 (B16-F10 [3]) was 6.6 and the Ratio IC50 (K562 [5]) was 3.4. The Ratio IC50 (K562 [6]) was 7.2.

“Bis-(5-acetylsalicylato)triphenylantimony(V) chloroform solvate” gave a Ratio IC50 (B16-F10 [2]) of 2.2, a Ratio IC50 (B16-F10 [3]) of 1.6 and a Ratio IC50 (K562 [5]) of 7.9. It also gave a Ratio IC50 (K562 [6]) of 5.6.

Work on “Bis-(2-acetylbenzoato)triphenylbismuth(V)” yielded a Ratio IC50 (B16-F10 [2]) of 6.1, a Ratio IC50 (B16-F10 [3]) of 13 and a Ratio IC50 (K562 [5]) of 24.6. The Ratio IC50 (K562 [6]) was 52.4, the fold change (FC) (B16-F10 [8]) was 18 and the fold change (FC) (B16-F10 [9]) was 70. It also gave a fold change (FC) (B16-F10 [10]) of 129, a fold change (FC) (B16-F10 [11]) of 256 and an Activity (B16-F10 [12]) of 3.89%. It also gave an Activity (B16-F10 [13]) of 14.6%, an Activity (B16-F10 [14]) of 66.1% and an Activity (B16-F10 [15]) of 15.4%. For the same compound, the Activity (B16-F10 [16]) was 10.7%, the Activity (B16-F10 [17]) was 77.3% and the Activity (B16-F10 [18]) was 5.22%. For the same compound, the Activity (B16-F10 [19]) was 6.81%, the Activity (B16-F10 [20]) was 7.1% and the Activity (B16-F10 [21]) was 90.1%. For the same compound, the Activity (B16-F10 [22]) was 1.57%, the Activity (B16-F10 [23]) was 1.25% and the fold change (FC) (B16-F10 [24]) was 8. It also gave a fold change (FC) (B16-F10 [25]) of 33, a fold change (FC) (B16-F10 [26]) of 34 and a fold change (FC) (B16-F10 [27]) of 1.5. For the same compound, the fold change (FC) (B16-F10 [28]) was 18 and the fold change (FC) (B16-F10 [29]) was 70.

Compound `CN[C@@H]1C[C@H]2O[C@@](C)([C@@H]1OC)n1c3ccccc3c3c4c(c5c6ccccc6n2c5c31)C(=O)NC4` [STAUROSPORINE] has an Activity (B16-F10 [30]) of 22.2%, an Activity (B16-F10 [31]) of 43.5% and a viability at 0.1 µM (B16-F10 [32]) of 33.9%. The Activity (B16-F10 [33]) was 0.461% and the “fold change (FC)” value (B16-F10 [34]) was 21.

In the case of `CC(=O)c1ccc(O)c(C(=O)O)c1`, the IC50 (L929; Mus musculus, L929, 72 h) is reported as 306 µM, the IC50 ([1]; Mus musculus, B16-F10, 72 h) is reported as 4880 µM and the “Ratio IC50” value (B16-F10 [2]) is reported as less than 1. The “Ratio IC50” value (B16-F10 [3]) was less than 1, the “Ratio IC50” value (K562 [5]) was less than 1 and the “Ratio IC50” value (K562 [6]) was less than 1.

“Bis-(4-acetylbenzoato)triphenylbismuth(V)” gave a Ratio IC50 (B16-F10 [2]) of 1.8, a Ratio IC50 (B16-F10 [3]) of 12.7 and a Ratio IC50 (K562 [5]) of 1. It also gave a Ratio IC50 (K562 [6]) of 7.4.

In the case of DICHLOROTRIPHENYLBISMUTHANE, the IC50 (L929; l929) is reported as 154 µM, the IC50 ([35]; melan-a) is reported as 130 µM and the IC50 ([1]; b16-f10) is reported as 19.2 µM. The IC50 (K562 [4]; k562) was 31.1 µM.

With `CC(=O)c1ccccc1C(=O)O` the IC50 (L929; Mus musculus, L929, 72 h) was 474 µM, the IC50 ([35]; Mus musculus, Melan-a, 72 h) was 775 µM and the IC50 ([1]; Mus musculus, B16-F10, 72 h) was 852 µM. The “Ratio IC50” value (B16-F10 [2]) was less than 1, the “Ratio IC50” value (B16-F10 [3]) was less than 1 and the IC50 (K562 [4]; Homo sapiens, K562, 72 h) was 502 µM. The “Ratio IC50” value (K562 [5]) was less than 1 and the “Ratio IC50” value (K562 [6]) was 1.5.

Work on Bi-chlorodibenzo[c,f][1,5]thiabismocine yielded a fold change (FC) (HL-60 [36]) of 13 and an Activity (HL-60 [37]) of 80%.
